Where a SMILES comes first, the peptide text is derived from it. Side-chain parts run from the residue outwards. [ ]: non-standard residue; d: D form. The star is where a group is joined. NMePhe(4-NH(5-NH2-Trz-3-yl)) = CN[C@@H](Cc1ccc(Nc2n[nH]c(N)n2)cc1)C(=O)O; Shikimoyl = O=C(C1=C[C@@H](O)[C@@H](O)[C@H](O)C1)*; Quinoline3carbonyl = O=C(c1cnc2ccccc2c1)*; Quinoline4carbonyl = O=C(c1ccnc2ccccc12)*; dPhe(4-Cl) = N[C@H](Cc1ccc(Cl)cc1)C(=O)O; d2Nal = N[C@H](Cc1ccc2ccccc2c1)C(=O)O; Acetyl(3-pyridyl) = O=C(Cc1cccnc1)*; Lys(iPr) = CC(C)NCCCC[C@H](N)C(=O)O; NMeY = CN[C@@H](Cc1ccc(O)cc1)C(=O)O; Pyrazinecarbonyl = O=C(c1cnccn1)*; d3Pal = N[C@H](Cc1cccnc1)C(=O)O; X4 = Nc1nc(NCC(=O)*)n[nH]1; 2Furoyl = O=C(c1ccco1)*; Propionyl = CCC(=O)*; azaGly = NNC(=O)O

In the test the target is T1, LHRH receptor (Rattus norvegicus, UniProt P30969).
T1 construct: endogenous in cells
T1 sequence (P30969 1-327): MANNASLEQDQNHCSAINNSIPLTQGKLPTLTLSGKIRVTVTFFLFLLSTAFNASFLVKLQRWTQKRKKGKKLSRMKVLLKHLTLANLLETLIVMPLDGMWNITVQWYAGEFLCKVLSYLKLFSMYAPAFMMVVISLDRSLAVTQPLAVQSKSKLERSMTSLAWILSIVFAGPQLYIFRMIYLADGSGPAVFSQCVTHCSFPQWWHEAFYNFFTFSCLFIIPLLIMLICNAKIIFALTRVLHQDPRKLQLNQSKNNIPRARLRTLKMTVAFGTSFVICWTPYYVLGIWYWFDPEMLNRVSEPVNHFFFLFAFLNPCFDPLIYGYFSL
Briefly: in vitro LHRH antagonist potency (pA2) against the agonist leuprolide. Type of test: cell-based. The note with it: negative logarithm of the antagonist concentration which shifts the response curve produced by the agonist leuprolide to two-fold higher concentration. In short, it runs like this:
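Functional antagonism against the agonist leuprolide. pA2 is the negative log of antagonist concentration that shifts the leuprolide response curve to twofold higher concentration.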
Turning to `CC(=O)N[C@H](CO)C(=O)NCCCC[C@@H](NC(=O)[C@H](Cc1ccc(O)cc1)N(C)C(=O)[C@H](CO)NC(=O)[C@@H](Cc1cccnc1)NC(=O)[C@@H](Cc1ccc(Cl)cc1)NC(=O)[C@@H](Cc1ccc2ccccc2c1)NC(C)=O)C(=O)N[C@@H](CC(C)C)C(=O)N[C@@H](CCCNC(=N)N)C(=O)N1CCC[C@H]1C(=O)N[C@H](C)C(N)=O` [Example 8, NAc-D2Nal^1 -D4ClPhe^2 -D3Pal^3 -Ser^4 -NMeTyr^5 -DLys(N-epsilon-DSer-Acetyl)^6 -Leu^7 -Arg^8 -Pro^9 -DAla^10 NH2] (Ac-[d2Nal][dPhe(4-Cl)][d3Pal]S[NMeY][dK]([dS-Ac])LRP[dA]-NH2), the Kb (commonly the affinity of an antagonist, worked out from how it opposes an agonist) was 0.00794 nM.

For the compound `CC(=O)N[C@H](Cc1ccc2ccccc2c1)C(=O)N[C@H](Cc1ccc(Cl)cc1)C(=O)N[C@H](Cc1cccnc1)C(=O)N[C@@H](CO)C(=O)N(C)[C@@H](Cc1ccc(O)cc1)C(=O)N[C@H](CCCCNC(=O)[C@@H](CO)NC(=O)c1ccnc2ccccc12)C(=O)N[C@@H](CC(C)C)C(=O)N[C@@H](CCCNC(=N)N)C(=O)N1CCC[C@H]1C(=O)N[C@H](C)C(N)=O` [Example 50e, NAc-D2Nal^1 -D4ClPhe^2 -D3Pal^3 -Ser^4 -NMeTyr^5 -DLys(N-epsilon-DSer-4-Quinolinyl)^6 -Leu^7 -Arg^8 -Pro^9 -DAla^10 NH2] (Ac-[d2Nal][dPhe(4-Cl)][d3Pal]S[NMeY][dK]([dS-Quinoline4carbonyl])LRP[dA]-NH2), the Kb is 0.0288 nM. In the case of `CC(=O)N[C@H](Cc1ccc2ccccc2c1)C(=O)N[C@H](Cc1ccc(Cl)cc1)C(=O)N[C@H](Cc1cccnc1)C(=O)N[C@@H](CO)C(=O)N(C)[C@@H](Cc1ccc(Nc2n[nH]c(N)n2)cc1)C(=O)N[C@H](CCCCNC(=O)CNc1n[nH]c(N)n1)C(=O)N[C@@H](CC(C)C)C(=O)N[C@@H](CCCCNC(C)C)C(=O)N1CCC[C@H]1C(=O)N[C@H](C)C(N)=O` [Example 63, NAc-D2Nal^1 -D4ClPhe^2 -D3Pal^3 -Ser^4 -NMePhe(Atz)^5 -DLys(N-epsilon-N'-Gly-Atz)^6 -Leu^7 -Lys(N-epsilon-Isopropyl)^8 -Pro^9 -DAla^10 NH2] (Ac-[d2Nal][dPhe(4-Cl)][d3Pal]S[NMePhe(4-NH(5-NH2-Trz-3-yl))][dK](X4)L[Lys(iPr)]P[dA]-NH2), the Kb is 0.00447 nM.

Turning to `CC(=O)N[C@H](Cc1ccc2ccccc2c1)C(=O)N[C@H](Cc1ccc(Cl)cc1)C(=O)N[C@H](Cc1cccnc1)C(=O)N[C@@H](CO)C(=O)N(C)[C@@H](Cc1ccc(O)cc1)C(=O)N[C@H](CCCCNC(=O)[C@@H](CO)NC(=O)c1cnc2ccccc2c1)C(=O)N[C@@H](CC(C)C)C(=O)N[C@@H](CCCNC(=N)N)C(=O)N1CCC[C@H]1C(=O)N[C@H](C)C(N)=O` [Example 50d, NAc-D2Nal^1 -D4ClPhe^2 -D3Pal^3 -Ser^4 -NMeTyr^5 -DLys(N-epsilon-DSer-3-Quinolinyl)^6 -Leu^7 -Arg^8 -Pro^9 -DAla^10 NH2] (Ac-[d2Nal][dPhe(4-Cl)][d3Pal]S[NMeY][dK]([dS-Quinoline3carbonyl])LRP[dA]-NH2), the Kb is 0.0479 nM. `CC(=O)N[C@H](Cc1ccc2ccccc2c1)C(=O)N[C@H](Cc1ccc(Cl)cc1)C(=O)N[C@H](Cc1cccnc1)C(=O)N[C@@H](CO)C(=O)N(C)[C@@H](Cc1ccc(O)cc1)C(=O)N[C@H](CCCCNC(=O)CNC(=O)c1cnccn1)C(=O)N[C@@H](CC(C)C)C(=O)N[C@@H](CCCNC(=N)N)C(=O)N1CCC[C@H]1C(=O)N[C@H](C)C(N)=O` [Example 51e, NAc-D2Nal^1 -D4ClPhe^2 -D3Pal^3 -Ser^4 -NMeTyr^6 -DLys(N-epsilon-Gly-2-Pyrazinecarbonyl)^6 -Leu^7 -Arg^8 -Pro^9 -DAla^10 NH2] (Ac-[d2Nal][dPhe(4-Cl)][d3Pal]S[NMeY][dK]([Gly-Pyrazinecarbonyl])LRP[dA]-NH2): the antagonist dissociation constant (Kb) was 0.00692 nM. Consider `CC(=O)N[C@H](Cc1ccc2ccccc2c1)C(=O)N[C@H](Cc1ccc(Cl)cc1)C(=O)N[C@H](Cc1cccnc1)C(=O)N[C@@H](CO)C(=O)N(C)[C@@H](Cc1ccc(O)cc1)C(=O)N[C@H](CCCCNC(=O)[C@@H](CO)NC(=O)C1=C[C@@H](O)[C@@H](O)[C@H](O)C1)C(=O)N[C@@H](CC(C)C)C(=O)N[C@@H](CCCNC(=N)N)C(=O)N1CCC[C@H]1C(=O)N[C@H](C)C(N)=O` [Example 11, NAc-D2Nal^1 -D4ClPhe^2 -D3Pal^3 -Ser^4 -NMeTyr^5 -DLys(N-epsilon-DSer-Shikimyl)^6 -Leu^7 -Arg^8 -Pro^9 -DAla^10 NH2] (Ac-[d2Nal][dPhe(4-Cl)][d3Pal]S[NMeY][dK]([dS-Shikimoyl])LRP[dA]-NH2), for which the antagonist equilibrium constant (Kb) was 0.017 nM.

For `CCC(=O)NNC(=O)NCCCC[C@@H](NC(=O)[C@H](Cc1ccc(O)cc1)N(C)C(=O)[C@H](CO)NC(=O)[C@@H](Cc1cccnc1)NC(=O)[C@@H](Cc1ccc(Cl)cc1)NC(=O)[C@@H](Cc1ccc2ccccc2c1)NC(C)=O)C(=O)N[C@@H](CC(C)C)C(=O)N[C@@H](CCCCNC(C)C)C(=O)N1CCC[C@H]1C(=O)N[C@H](C)C(N)=O` [Example 58, NAc-D2Nal^1 -D4ClPhe^2 -D3Pal^3 -Ser^4 -NMeTyr^5 -DLys(N-epsilon-Azagly-Propionyl)^6 -Leu^7 -Lys(N-epsilon-Isopropyl)^8 -Pro^9 -DAla^10 NH2] (Ac-[d2Nal][dPhe(4-Cl)][d3Pal]S[NMeY][dK]([azaGly-Propionyl])L[Lys(iPr)]P[dA]-NH2), the Kb is 0.0257 nM. Regarding `CC(=O)N[C@H](Cc1ccc2ccccc2c1)C(=O)N[C@H](Cc1ccc(Cl)cc1)C(=O)N[C@H](Cc1cccnc1)C(=O)N[C@@H](CO)C(=O)N(C)[C@@H](Cc1ccc(O)cc1)C(=O)N[C@H](CCCCNC(=O)CNC(=O)Cc1cccnc1)C(=O)N[C@@H](CC(C)C)C(=O)N[C@@H](CCCNC(=N)N)C(=O)N1CCC[C@H]1C(=O)N[C@H](C)C(N)=O` [Example 65c, NAc-D2Nal^1 -D4ClPhe^2 -D3Pal^3 -Ser^4 -NMeTyr^5 -DLys(N-epsilon-Gly-3Pyridylacetyl)^6 -Leu^7 -Arg^8 -Pro^9 -DAla^10 NH2] (Ac-[d2Nal][dPhe(4-Cl)][d3Pal]S[NMeY][dK]([Gly-Acetyl(3-pyridyl)])LRP[dA]-NH2), the Kb is 0.0288 nM.

Turning to `CC(=O)N[C@H](Cc1ccc2ccccc2c1)C(=O)N[C@H](Cc1ccc(Cl)cc1)C(=O)N[C@H](Cc1cccnc1)C(=O)N[C@@H](CO)C(=O)N(C)[C@@H](Cc1ccc(O)cc1)C(=O)N[C@H](CCCCNC(=O)CNC(=O)CNC(=O)c1ccco1)C(=O)N[C@@H](CC(C)C)C(=O)N[C@@H](CCCCNC(C)C)C(=O)N1CCC[C@H]1C(=O)N[C@H](C)C(N)=O` [Example 57a, NAcD2Nal^1 -D4ClPhe^2 -D3Pal^3 -Ser^4 -NMeTyr^5 -DLys(N-epsilon-Gly-Gly-furoyl)^6 -Leu^7 -Lys(Isp)^8 -Pro^9 -DAla^10 NH2] (Ac-[d2Nal][dPhe(4-Cl)][d3Pal]S[NMeY][dK]([Gly-Gly-2Furoyl])L[Lys(iPr)]P[dA]-NH2), the Kb is 0.0145 nM.

With `CC(=O)N[C@@H](CO)C(=O)NCCCC[C@@H](NC(=O)[C@H](Cc1ccc(O)cc1)N(C)C(=O)[C@H](CO)NC(=O)[C@@H](Cc1cccnc1)NC(=O)[C@@H](Cc1ccc(Cl)cc1)NC(=O)[C@@H](Cc1ccc2ccccc2c1)NC(C)=O)C(=O)N[C@@H](CC(C)C)C(=O)N[C@@H](CCCNC(=N)N)C(=O)N1CCC[C@H]1C(=O)N[C@H](C)C(N)=O` [Example 9, NAc-D2Nal^1 -D4ClPhe^2 -D3Pal^3 -Ser^4 -NMeTyr^5 -DLys(N-epsilon-Ser-Acetyl)^6 -Leu^7 -Arg^8 -Pro^9 -DAla^10 NH2] (Ac-[d2Nal][dPhe(4-Cl)][d3Pal]S[NMeY][dK]([Ser-Ac])LRP[dA]-NH2), the antagonist equilibrium constant (Kb) is 0.00891 nM.
